This note sets out measurements from PubChem BioAssay AID1259411 (Chemical Carcinogenesis Research Information System (CCRIS), 2018).

For this data set, the system named is rodent carcinogenicity bioassays, tumor incidence. The data set can be described thus: CCRIS carcinogenicity studies. An outline of the steps: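 NCI-built, expert-reviewed records of carcinogenicity and related test outcomes (mutagenicity, tumor promotion/inhibition) compiled from published and report sources, historical span 1985-2011, not updated.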

Molecules are shown by their SMILES. Activity calls are given as the source filed them. The rule behind the calls is not given here.

Consider `Cc1c(C(=O)O)c(O)cc2c1C(=O)c1c(O)c([C@@H]3O[C@@H](CO)[C@H](O)[C@@H](O)[C@H]3O)c(O)c(O)c1C2=O`, for which the carcinogen call runs as follows: (Species: RAT, Strain/Sex: WISTAR/FEMALE, Route: ORAL, Dose: 0, 50, 150, 500 MG/KG/D IN BASAL DIET TO PUPS OF PARENTS GIVEN THE SAME DIETARY DOSE LEVELS FOR 60 D PRIOR TO MATING AND, Dose: 0, 50, 150, 500 MG/KG/D IN BASAL DIET TO PUPS OF PARENTS GIVEN THE SAME DIETARY DOSE LEVELS FOR 60 D PRIOR TO MATING AND) “inactive; negative”; (Species: RAT, Strain/Sex: WISTAR/MALE, Route: ORAL, Dose: 0, 50, 150, 500 MG/KG/D IN BASAL DIET TO PUPS OF PARENTS GIVEN THE SAME DIETARY DOSE LEVELS FOR 60 D PRIOR TO MATING AND, Dose: 0, 50, 150, 500 MG/KG/D IN BASAL DIET TO PUPS OF PARENTS GIVEN THE SAME DIETARY DOSE LEVELS FOR 60 D PRIOR TO MATING AND) “inactive; negative”.

Turning to `CCN(CCO)N=O`, the carcinogen call is “inactive; negative” (Species: HAMSTER, Strain/Sex: SYRIAN/MALE, Route: ORAL, Dose: 0, 1000, 2000 PPM IN DIET FOR 2 WK (STUDY DURATION: 30 WK), Dose: 0, 1000, 2000 PPM IN DIET FOR 2 WK (STUDY DURATION: 30 WK)); “active; positive” (Species: MOUSE, Strain/Sex: BALB/C/MALE, Route: ORAL, Dose: 0, 1000, 2000 PPM IN DRINKING WATER FOR 2 WK (STUDY DURATION: 52 WK), Dose: 0, 1000, 2000 PPM IN DRINKING WATER FOR 2 WK (STUDY DURATION: 52 WK), Tumor Site: Type of Lesion: LUNG: TUMOR); “active; positive” (Species: MOUSE, Strain/Sex: BALB/MALE, Route: ORAL, Dose: 0, 1000, 2000 PPM IN DIET FOR 2 WK (STUDY DURATION: 30 WK), Dose: 0, 1000, 2000 PPM IN DIET FOR 2 WK (STUDY DURATION: 30 WK), Tumor Site: Type of Lesion: LUNG: TUMOR); “active; positive” (Species: MOUSE, Strain/Sex: STRAIN-A/MALE, Route: ORAL, Dose: 0, 1000, 2000 PPM IN DIET FOR 2 WK (STUDY DURATION: 30 WK), Dose: 0, 1000, 2000 PPM IN DIET FOR 2 WK (STUDY DURATION: 30 WK), Tumor Site: Type of Lesion: LIVER: TUMOR, LUNG: TUMOR); “inactive; negative” (Species: RAT, Strain/Sex: F344/MALE, Route: ORAL, Dose: 0, 1000 PPM IN DIET FOR 2 WK (STUDY DURATION: 30 WK)); “active; positive” (Species: RAT, Strain/Sex: WISTAR/FEMALE, Route: ORAL, Dose: 0, 1000 PPM IN DIET FOR 2 WK (STUDY DURATION: 30 WK), Tumor Site: Type of Lesion: KIDNEY: RENAL CELL TUMOR). The carcinogen call by setting is: (Species: RAT, Strain/Sex: WISTAR/MALE, Route: ORAL, Dose: 0, 1000, 2000 PPM IN DRINKING WATER FOR 2 WK (STUDY DURATION: 52 WK), Dose: 0, 1000, 2000 PPM IN DRINKING WATER FOR 2 WK (STUDY DURATION: 52 WK), Tumor Site: Type of Lesion: KIDNEY: TUMOR) “active; positive”; (Species: RAT, Strain/Sex: WISTAR/MALE, Route: ORAL, Dose: 0, 1000 PPM IN DIET FOR 2 WK (STUDY DURATION: 30 WK), Tumor Site: Type of Lesion: KIDNEY: RENAL CELL TUMOR, LIVER: TUMOR) “active; positive”; (Species: RAT, Strain/Sex: WISTAR/MALE, Route: ORAL, Dose: 0, 1000 PPM IN DRINKING WATER FOR 2 WK (STUDY DURATION: 30 WK), Tumor Site: Type of Lesion: KIDNEY: RENAL CELL TUMOR) “active; positive”.

Regarding `O=C1OC2(c3ccccc31)c1cc(I)c(O)c(I)c1Oc1c2cc(I)c(O)c1I`, the carcinogen call is, setting by setting: (Species: MOUSE, Strain/Sex: CD-1/FEMALE, Route: ORAL, Dose: 0, 0.3, 1.0, 3.0% IN DIET FOR 24 MO (STUDY DURATION: 24 MO), Dose: 0, 0.3, 1.0, 3.0% IN DIET FOR 24 MO (STUDY DURATION: 24 MO)) “inactive; negative”; (Species: MOUSE, Strain/Sex: CD-1/MALE, Route: ORAL, Dose: 0, 0.3, 1.0, 3.0% IN DIET FOR 24 MO (STUDY DURATION: 24 MO), Dose: 0, 0.3, 1.0, 3.0% IN DIET FOR 24 MO (STUDY DURATION: 24 MO)) “inactive; negative”; (Species: MOUSE, Strain/Sex: ICR/FEMALE, Route: DERMAL, Dose: 0, 1 MG IN 0.1 ML DISTILLED WATER 2/WK FOR A MEAN TOTAL DOSE OF 133 MG (STUDY DURATION: 18 MO)) “inactive; negative”; (Species: MOUSE, Strain/Sex: ICR/MALE, Route: DERMAL, Dose: 0, 1 MG IN 0.1 ML DISTILLED WATER 2/WK FOR A MEAN TOTAL DOSE OF 133 MG (STUDY DURATION: 18 MO)) “inactive; negative”; (Species: RAT, Strain/Sex: CD-1/FEMALE, Route: ORAL, Dose: 0, 0.1, 0.5, 1% IN DIET FOR 30 MO BEGINNING IN UTERO WITH PARENTS GIVEN THE SAME DIETARY DOSES (STUDY DURATION: 30 MO), Dose: 0, 0.1, 0.5, 1% IN DIET FOR 30 MO BEGINNING IN UTERO WITH PARENTS GIVEN THE SAME DIETARY DOSES (STUDY DURATION: 30 MO)) “inactive; negative”; (Species: RAT, Strain/Sex: CD-1/FEMALE, Route: ORAL, Dose: 0, 4% IN DIET FOR 30 MO BEGINNING IN UTERO WITH PARENTS GIVEN THE SAME DIETARY DOSES (STUDY DURATION: 30 MO)) “inactive; negative”. Besides, the carcinogen call runs as follows: (Species: RAT, Strain/Sex: CD-1/MALE, Route: ORAL, Dose: 0, 0.1, 0.5, 1% IN DIET FOR 30 MO BEGINNING IN UTERO WITH PARENTS GIVEN THE SAME DIETARY DOSES (STUDY DURATION: 30 MO), Dose: 0, 0.1, 0.5, 1% IN DIET FOR 30 MO BEGINNING IN UTERO WITH PARENTS GIVEN THE SAME DIETARY DOSES (STUDY DURATION: 30 MO)) “inactive; negative”; (Species: RAT, Strain/Sex: CD-1/MALE, Route: ORAL, Dose: 0, 4% IN DIET FOR 30 MO BEGINNING IN UTERO WITH PARENTS GIVEN THE SAME DIETARY DOSES (STUDY DURATION: 30 MO), Tumor Site: Type of Lesion: THYROID: ADENOMA) “active; positive”.

Turning to `O=[N+]([O-])c1ccc2c(c1)Cc1cc([N+](=O)[O-])ccc1-2`, the carcinogen call by setting is: (Species: Rat, Strain/Sex: Sprague-Dawley/Female (16/group), Route: Intraperitoneal, Dose: 10 umol/kg 3 times a wk for 4 wk (avg total dose 16.0 umol/rat), animals retained for up to 90 wk after last dosing (Tes, Tumor Site: Type of Lesion: Mammary Gland: % of rats with tumors (malignant 44, benign 38 vs 6 malignant, 53 benign in vehicle controls)) “active; positive for malignant tumors only (p=0.02). dna adducts observed in mammary gla”; (Species: Rat, Strain/Sex: Sprague-Dawley/Female (17/group), Route: Oral, Dose: 10 umol/kg 3 times a wk for 4 wk (avg total dose 18.0 umol/rat), animals retained for up to 90 wk after last dosing (Tes, Tumor Site: Type of Lesion: Mammary Gland: % of rats with tumors (malignant 29, benign 53 vs 12 malignant, 53 benign in vehicle controls)) “inactive; negative. dna adducts observed in mammary gland dna collected 24 hr after last d”.

Turning to `O=NN1CCOC1`, the carcinogen call by setting is: (Species: HAMSTER, Strain/Sex: SYRIAN/MALE, Route: INTRAGASTRIC, Dose: 0, 23 MG/ML IN 0.2 ML STERILIZED WATER 1/WK FOR 35 WK (TOTAL DOSE 161 MG) (STUDY DURATION: LIFESPAN), Tumor Site: Type of Lesion: LIVER: HEPATOCELLULAR CARCINOMA, ADENOMA, HEMANGIOSARCOMA, CHOLANGIOCARCINOMA) “active; positive”; (Species: RAT, Strain/Sex: F344/FEMALE, Route: ORAL, Dose: 35 MG/L IN DRINKING WATER FOR 50 WK, Tumor Site: Type of Lesion: LIVER: HEPATOCELLULAR CARCINOMA, HEMANGIOENDOTHELIAL SARCOMA) “active; positive”.

Take `Brc1c2ccccc2cc2c1ccc1ccccc12`: the carcinogen call (Species: MOUSE, Strain/Sex: B6C3F1/MALE, Route: INTRAPERITONEAL, Dose: 0, 1600 NMOL (TOTAL DOSE) ADMINISTERED IN DOSES OF 1/7 WITHIN 24 HR OF BIRTH, 2/7 AT 8 DAYS OF AGE AND 4/7 AT 15 DAYS OF, Tumor Site: Type of Lesion: LIVER: ADENOMA, CARCINOMA) is “active; positive”.

For `N#Cc1cc(Br)c(O)c(Br)c1`, the carcinogen call is “active; positive at high dose only; purity 94.4%” (Species: Mouse, Strain/Sex: Crl:CD-1 (ICR)BR VAF/Plus/Female (60/sex/group), Route: Oral, Dose: 0, 20, 75, 300 ppm in feed for 78-80 wk, Dose: 0, 20, 75, 300 ppm in feed for 78-80 wk, Tumor Site: Type of Lesion: Liver: Hepatocellular adenoma and carcinoma combined (0 ppm, 2/60; 300 ppm, 7/59)); “active; positive; purity 94.4%” (Species: Mouse, Strain/Sex: Crl:CD-1 (ICR)BR VAF/Plus/Male (60/sex/group), Route: Oral, Dose: 0, 20, 75, 300 ppm in feed for 78-80 wk, Dose: 0, 20, 75, 300 ppm in feed for 78-80 wk, Tumor Site: Type of Lesion: Liver: Hepatocellular adenoma and carcinoma combined (5/60; 16/60; 12/60; 23/60)).

With `N#CN=C(N)N`, the carcinogen call reads like this: (Species: RAT, Strain/Sex: F344/FEMALE, Route: ORAL, Dose: 0, 2.5, 5% IN DIET FOR 104 WK (STUDY DURATION: 113 WK), Dose: 0, 2.5, 5% IN DIET FOR 104 WK (STUDY DURATION: 113 WK)) “inactive; negative”; (Species: RAT, Strain/Sex: F344/MALE, Route: ORAL, Dose: 0, 2.5, 5% IN DIET FOR 104 WK (STUDY DURATION: 113 WK), Dose: 0, 2.5, 5% IN DIET FOR 104 WK (STUDY DURATION: 113 WK)) “inactive; negative”.
